Test results from PMC10718076, “1,2-Disubstituted bicyclo[2.1.1]hexanes as saturated bioisosteres of ortho-substituted benzene” (Chemical Science, 2023).
In brackets after ≈: the same amount, converted by molar mass. Counter-ions that a name gives are not always drawn. Like-named read-outs stand apart in the source and are kept apart here.

Columns and labels:
in vitro = details: both, human
[1] = Metabolic stability in human liver microsomes; details: both; for remaining at 40 min, 2 µM: Mean of 2, 40 min; for remaining at 25 min, 2 µM: Mean of 2, 25 min; for k el at 2 µM: pH 7.4, kel; for half-life at 2 µM: pH 7.4, t1/2, Table S6, 1st batch
[2] = Kinetic solubility in phosphate-buffered saline, pH 7.4; format: physicochemical; details: 25 °C, pH 7.4, aqueous buffer, kinetic from dmso stock; for solubility at 2 h: PBS solubility
Procedure: Analysis of Aqueous Solubility […]
compound (Ondansetron) were assessed for kinetic solubility in phosphate -buffered saline, pH 7.4.
Phosphate buffered saline, pH 7.4 (Sigma -Aldrich, USA; Cat #P3813) […]
MultiScreen HTS 96 Well Filter Plates (Millipore, Ireland; Cat # MSSLBPC10) […]
Matrix Multichannel Electronic Pipette 2-125 μL, 5-250 μL, 15-1250 μL (Thermo Scientific, USA; […]
Vacuum pump (Millipore, USA; Model # XX5500000)
The measurements were performed using SpectraMax Plus reader in UV -Vis mode. Acquisition and […]
The measurements were performed using SpectraMax Paradigm reader in UV-Vis mode.
Acquisition and analysis of the data were performed using SoftMax Pro v.5.4 (Molecular Devices) […]
Kinetic solubility assay was performed according to the Enamine’s aqueous solubility SOP. Briefly, using a 20 mM stock solution of the compound in 100% DMSO dilutions were prepared to a theoretical concentration of 400 μM in duplicates in phosphate-buffered saline pH 7.4 […]
compound dilutions in PBS were further allowed to equilibrate at 25 °C on a thermostatic shaker for two hours and then filtered through HTS filter plates using a vacuum manifold. The filtrates of test compounds were diluted 2-fold with acetonitrile with 2% DMSO before measuring.
In parallel, compound dilutions in 50% acetonitrile/PBS were prepared to theoretical concentrations […]
calibration curves. Ondansetron was used as reference compound to control proper assay performance. 200 μl of each sample was transferred to 96-well plate and measured in 230-550 nm range with 5 nm step. The effective range of this assay is approximately 2-400 μM and the […]
The concentrations of compounds in PBS filtrate are calculated using a dedicated Microsoft Excel calculation script. Proper absorbance wavelengths for calculations are selected for each compound manually based on absorbance maximums (absolute absorbance unit values for the minimum and maximum concentration points within the 0 – 3 OD range). Each final dataset is visually evaluated by the operator, and goodness of fit (R2) is calculated for each calibration curve. […]
samples were diluted 2-fold with acetonitrile containing internal standard and were analyzed using the HPLC system coupled with a tandem mass spectrometer. The effective range of this assay is […]

[3] = system: Aspergillus niger (strain VURV-F 822); assay: Antifungal disk diffusion method; format: cell-based
Procedure: Antifungal activity of the synthetic compounds using disk diffusion methods The compounds were tested for plant pathogens Aspergillus niger (strain VURV-F 822), which was received from Culture collection of microorganisms of Crop Research Institute (Prague, Czech […]
The synthetic compounds' antifungal activity was evaluated using a disk diffusion assay for testing filamentous fungi (CLSI M51-A) and broth microdilution antifungal susceptibility testing (EUCAST E.DEF 7.3.1; CLSI M38-A2)
[CLSI M51-A. Method for Antifungal Disk Diffusion Susceptibility Testing of Nondermatophyte Filamentous Fungi; Approved Guideline.CLSI document M51-A. Wayne, PA:
Clinical and Laboratory Standards Institute; 2010. This method is standardized for Altenaria, Aspergillus, Bipolaris, Fusarium, order Mucorales, etc.]
[CLSI M38-A2. 2008. Reference method for broth dilution antifungal susceptibility testing of filamentous fungi, 2nd ed Approved standard M38 -A2 Clinical and Laboratory Standards Institute, […]
Antifungal disk diffusion method
The solutions of fungicides and their analogues were diluted in dimethyl sulfoxide (DMSO) to […]
mg/mL for each test component. Sterile paper disks (ASPECT, Ukraine) were soaked with 10 μl of a solution of the appropriate fungicide from the highest concentration to the lowest.
The fungal strains were cultured on Petri dishes with Saburo dextrose agar (Condalab, Spain) and incubated at 25 °C for 5 days. Sterile Dulbecco's phosphate -buffered saline (DPBS) with 0,1 % Tween 20 was used to cover colonies of fungus for obtained conidia l suspension. Suspension of conidia was adjusted to inoculums 2×10^5 conidia/mL by sterile DPBS.
For antifungal disk diffusion test we used square Petri dishes (FALCON A Corning Brand, USA). The conidial suspension (0.5 mL) was added to Petri dishes with Saburo dextrose agar. The suspension was evenly distributed over the surface of the nutrient medium with a glass spatula.
After the surface of the inoculated medium was dry, the disks with different concentrations of testing compounds were added to the Petri dishes. Each compound was tested in triplicate at different concentrations. Growth control was a disk with 10 μl of DMSO, which was used for test […]
Petri dishes incubated at 25 °C for 72 h. The test compounds at known concentrati on into contact with an inoculated medium then exert a growth-inhibiting effect then a clear zone (the zone of […]
inhibition) appears around the test product. The diameter of a clear zone around the well is […]
If the fungal strain is susceptible to the antifungal agent, then a zone of inhibition appears on the agar plate. If it is resistant to the test compound, then no zone is evident. The size of the zone of inhibition is usually related to the level of antifungal activity present in the compound – a larger […]
The growth rate of all strains for each concentration of test compounds was determined visually and compared with the growth of control.
Broth microdilution antifungal susceptibility testing
A 96-well CELLSTAR plate (sterile, flat-bottomed, polystyrene, transparent) was used to determine MIC by broth microdilution method. Also, dabble straight RPMI-1640 medium with 2% glucose (2x RPMI 2%G) was used for this method. Spore suspension for plate inoculation was prepared according to the method described above for the disc diffusion method.
The each well in the plate contained 49 μl of medium (2x RPMI 2%G), 50 μl of inoculum (prepared in DPBS) and 1 μl of the stock solution of the test substance. Positive control wells contained 50 μl medium and 50 μl inoculum, and sterile control wells contained 50 μl medium and […]
To determine the MIC by the microdilution method, a series of stock solutions of fungicides and their analogues in DMSO with the following concentrations were prepared: 3.2 mg/mL, 1.6 mg/mL, […]
1 μl of the stock solutions of the test substances were added to each well to obtain the following […]
Immediately after adding all the components to the plates, the optical density was measured at […]

[4] = Table S5, injection 1, octanol/PBS pH 7.4
[5] = Table S5, injection 2, octanol/PBS pH 7.4
[6] = Table S5, injection 3, octanol/PBS pH 7.4
[7] = liver microsomes (pooled), pH 7.4, % Remaining without cofactor, no NADPH cofactor, Table S6, 1st batch
[8] = liver microsomes (pooled), pH 7.4, % Remaining, Mean of 2, 7 min, Table S6, 1st batch
[9] = liver microsomes (pooled), pH 7.4, % Remaining, Mean of 2, 15 min, Table S6, 1st batch
[10] = liver microsomes (pooled), pH 7.4, % Remaining, Table S6, 1st batch
[11] = liver microsomes (pooled), Table S6, 1st batch

solubility kinetic at 2 h [2] [µM]	D [4]	D [5]	D [6]	solubility at 2 h ([2]; pH 7.4, Incubation 1) [µM]	solubility at 2 h ([2]; pH 7.4, Incubation 2) [µM]	solubility at 2 h ([2]; pH 7.4, Mean) [µM]	logD at 1 h (physchem; pH 7.4, LogD, pH 7.4)	remaining at 40 min, 2 µM [1, 7] [%]	remaining at […], 2 µM [1, 8] [%]	remaining at […], 2 µM [1, 9] [%]	remaining at 25 min, 2 µM [1, 10] [%]	remaining at 40 min, 2 µM [1, 10] [%]	k el at 2 µM [1, 11] [s⁻¹]	half-life at 2 µM ([1]; liver microsomes (pooled)) [h]	SMILES	other results
															CC(C)NCC(O)COc1cccc2ccccc12 (racemic) [Propranolol, (+,-) Propranolol hydrochloride]	remaining at 40 min, 2 µM (in vitro; microsomes, pH 7.4, % Remaining, Mean of 2): 68%; half-life at 2 µM (in vitro; microsomes, pH 7.4, t1/2): 1.18 h; half-life at 2 µM (in vitro; s9, pH 7.4, t1/2): ~5.93 h; remaining at 40 min, 2 µM ([1]; liver microsomes (pooled), pH 7.4, % Remaining, Table S7, 2st batch): 58%
14 (≈ 7.04 µg/mL)	9.55E+03	1.25E+04	1.36E+04	15 (≈ 7.54 µg/mL)	14 (≈ 7.04 µg/mL)	14 (≈ 7.04 µg/mL)	3.98	109	81	81	83	76	8.33e-05	2.25	Cc1nc2c([nH]1)CCN(C(=O)c1ccc(NC(=O)C3CC4CC3(c3ccccc3)C4)cc1)c1ccccc1-2 (stereo not shown) [Compound 26]	microsomal CLint at 2 μM ([1]; human liver microsomes (pooled), pH 7.4): 12 µL/min/mg
18 (≈ 12.6 µg/mL)	7.79E+03	7.46E+03	8.20E+03	18 (≈ 12.6 µg/mL)	19 (≈ 13.3 µg/mL)	18 (≈ 12.6 µg/mL)	3.89	106	47	20	9	5	0.00128	0.15	O=C(NC1CCN(CCCCC2(C(=O)NCC(F)(F)F)c3ccccc3-c3ccccc32)CC1)C1CC2CC1(c1ccc(C(F)(F)F)cc1)C2 (stereo not shown) [Compound 27]	logD at 1 h (physchem; pH 7.4, log D (7.4)): 3.9; microsomal CLint at 2 µM ([1]; liver microsomes (pooled), pH 7.4): 186 µL/min/mg

SMILES	solubility kinetic at 2 h [2] [µM]	D [4]	D [5]	D [6]	solubility at 2 h ([2]; pH 7.4, Incubation 1) [µM]	solubility at 2 h ([2]; pH 7.4, Incubation 2) [µM]	solubility at 2 h ([2]; pH 7.4, Mean) [µM]	logD at 1 h (physchem; pH 7.4, LogD, pH 7.4)	remaining at 40 min, 2 µM [1, 7] [%]	remaining at […], 2 µM [1, 8] [%]	remaining at […], 2 µM [1, 9] [%]	remaining at 25 min, 2 µM [1, 10] [%]	remaining at 40 min, 2 µM [1, 10] [%]	k el at 2 µM [1, 11] [s⁻¹]	half-life at 2 µM ([1]; liver microsomes (pooled)) [h]	other results
O=C(Nc1ccccc1-c1ccc(Cl)cc1)c1cccnc1Cl [Boscalid, boscalid]	11 (≈ 3.78 µg/mL)	3.62E+03	2.86E+03	4.07E+03												zone of inhibition at 4 µg/mL ([3]; Concentration 0.004 mg/mL, 0 = absence of antifungal activity, Boscalid, Fluxapyroxad, Bixafen marked st, read-out: Diameter of inhibition zone): 7.5 ± 1 mm; zone of inhibition at 8 µg/mL ([3]; Concentration 0.008 mg/mL, 0 = absence of antifungal activity, read-out: Diameter of inhibition zone): 8.5 ± 1 mm; zone of inhibition at 16 µg/mL ([3]; Concentration 0.016 mg/mL, 0 = absence of antifungal activity, read-out: Diameter of inhibition zone): 10.5 ± 1.5 mm; zone of inhibition at 30 µg/mL ([3]; Concentration 0.03 mg/mL, 0 = absence of antifungal activity, (±)-29 marked st, read-out: Diameter of inhibition zone): 13.5 ± 2 mm; zone of inhibition at 60 µg/mL ([3]; Concentration 0.06 mg/mL, 0 = absence of antifungal activity, Fluxapyroxad, Bixafen, (±)-29 marked st, read-out: Diameter of inhibition zone): 17.8 ± 2.25 mm; zone of inhibition at 120 µg/mL ([3]; Concentration 0.12 mg/mL, (±)-28 marked st (static growth), read-out: Diameter of inhibition zone): 21.2 ± 2.25 mm; zone of inhibition at 250 µg/mL ([3]; Concentration 0.25 mg/mL, (±)-28 marked st (static growth, secondary growth of mycelium), read-out: Diameter of inhibition zone): 20.2 ± 1 mm; zone of inhibition at 500 µg/mL ([3]; Concentration 0.5 mg/mL, 10 μl per disk, read-out: Diameter of inhibition zone): 26 ± 2.5 mm; zone of inhibition at 1000 µg/mL ([3]; Concentration 1 mg/mL, 10 μl per disk, read-out: Diameter of inhibition zone): 29 ± 1.5 mm; zone of inhibition at 2000 µg/mL ([3]; Concentration 2 mg/mL, 10 μl per disk, read-out: Diameter of inhibition zone): 34.2 ± 0.75 mm; MIC ([3]; disk diffusion, small zones of inhibition with secondary mycelial growth, read-out: minimum inhibitory concentration): 4 µg/mL (≈ 11.7 µM)
